Data as given in PubChem BioAssay (NCI).
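Values below derive from 48-hour exposures of cells grown in 96-well plates, with endpoints linearly interpolated between the two concentrations bracketing the appropriate inhibition level. At the GI50, growth is halved. TGI marks complete inhibition of growth.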

Tests used:
Experiment in all cases: inhibition of tumour cell growth, NCI panel, 48 h
HCT-15 colon = system: HCT-15 colon
KM20L2 colon = system: KM20L2 colon
M14 melanoma = system: M14 melanoma
RPMI-8226 leukemia = system: RPMI-8226 leukemia
SF-539 CNS = system: SF-539 CNS
HOP-62 NSCLC = system: HOP-62 NSCLC
K-562 leukemia = system: K-562 leukemia
NCI-H522 lung = system: NCI-H522 lung
OVCAR-3 ovarian = system: OVCAR-3 ovarian
SK-OV-3 ovarian = system: SK-OV-3 ovarian

Compound	TGI (HCT-15 colon)	TGI (KM20L2 colon)	TGI (M14 melanoma)	TGI (RPMI-8226 leukemia)	TGI (SF-539 CNS)	TGI (HOP-62 NSCLC)	TGI (K-562 leukemia)	TGI (NCI-H522 lung)	TGI (OVCAR-3 ovarian)	TGI (SK-OV-3 ovarian)	GI50 (K-562 leukemia)	GI50 (SF-539 CNS)	GI50 (SK-OV-3 ovarian)	GI50 (HCT-15 colon)	GI50 (HOP-62 NSCLC)	GI50 (M14 melanoma)	GI50 (NCI-H522 lung)	GI50 (OVCAR-3 ovarian)	GI50 (RPMI-8226 leukemia)
CCOC(=O)/C=C(\C)c1ccc(OC)cc1	> 100 µM	> 100 µM	> 100 µM	> 100 µM	> 100 µM														
Cc1ccc(S(N)(=O)=O)cc1	> 1000 µM		> 1000 µM	> 1000 µM	> 1000 µM	> 1000 µM	> 1000 µM	> 1000 µM	> 1000 µM	> 1000 µM									
NCc1ccc(C(=O)O)cc1	> 100 µM		> 100 µM			> 100 µM	> 100 µM	> 100 µM	> 100 µM										
COc1cc(C2c3cc4c(cc3[C@@H](Nc3cccc(C(C)=O)c3)C3COC(=O)[C@H]23)OCO4)cc(OC)c1O (some centres undefined)	2.06 µM	> 23.3 µM		2.21 µM	1.24 µM	0.538 µM	6.1 µM	5.77 µM	13.9 µM	5.28 µM									
Brc1ccccc1-c1ncc(-c2ccccc2)o1	44.9 µM		> 100 µM	48.8 µM	77.1 µM	96.8 µM	> 100 µM	49.9 µM	89.6 µM	> 100 µM									
COc1ccc(-c2cc(N3CCN(c4ccccc4)CC3)c(C#N)c(=O)o2)cc1	> 100 µM	> 100 µM	> 100 µM	> 100 µM	41.5 µM		> 100 µM												
N#Cc1c(NC(=S)NC(=O)c2ccccc2)nc2c(c1-c1ccccc1)CCCC2	> 100 µM		> 100 µM	> 100 µM		> 100 µM	> 100 µM		> 100 µM	86.3 µM									
CCC(C)C(=O)c1c(O)c(C/C=C(\C)CCC=C(C)C)c(O)c2c(C(O)CC)cc(=O)oc12 (centres undefined)		2.68 µM	14.4 µM	3.51 µM	7.43 µM	4.08 µM	3.31 µM	5.73 µM	12.6 µM	10.8 µM									
CC(C)(Br)C1(O)CCCN1C(=O)c1ccccc1 (centres undefined)	> 100 µM	> 100 µM	> 100 µM		> 100 µM		> 100 µM	> 100 µM	> 100 µM	> 100 µM									
C#CC[C@@H]1C[C@]2(C)[C@H]3CC=C4[C@H]5CC(C)(C)CC[C@]5(C(=O)NCCCCN)CC[C@@]4(C)[C@]3(C)CC[C@H]2C(C)(C)[C@H]1OC(C)=O					3.1 µM		6.16 µM			3.18 µM	1910 nM	1680 nM	1720 nM						
ClCc1c(Cl)c(Cl)c(Cl)c(CCl)c1Cl	2.85 µM		3.43 µM	4.24 µM	13.5 µM	4.25 µM	4.37 µM	3.12 µM	3.26 µM		1800 nM	3720 nM		1520 nM	2150 nM	1660 nM	1510 nM	1860 nM	1860 nM
CCO/N=[N+](\[O-])N(CC)CC	> 100 µM	> 100 µM	> 100 µM		> 100 µM	> 100 µM	> 100 µM	> 100 µM	> 100 µM	> 100 µM									
